This passage reports TGI and GI50 results from PubChem BioAssay (NCI).

Test systems include HOP-92 NSCLC; SNB-19 CNS; COLO 205 colon; ACHN renal; A549 NSCLC; OVCAR-5 ovarian; SK-MEL-5 melanoma; HS 578T breast; BT-549 breast; UACC-62 melanoma.
Holding throughout (test): inhibition of tumour cell growth, NCI panel, 48 h

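Step 1: Grow cells in 96-well plates. Step 2: Expose to compound for 48 hours at 5 concentrations. Step 3: Interpolate endpoints linearly; if unreached, use highest concentration. At the GI50, growth is halved. At the TGI there is no net growth.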

For `O=C(O)C(CS)NCc1c2ccccc2nc2ccccc12` (stereo not given), the TGI is 88.9 µM in the assay with HOP-92 NSCLC; > 100 µM in the assay on SNB-19 CNS; > 100 µM in the assay with COLO 205 colon; > 100 µM in the assay on ACHN renal; > 100 µM in the assay with A549 NSCLC; > 100 µM with OVCAR-5 ovarian.

`Cc1nn(C)c(COc2ccc(N3CCN(S(=O)(=O)N(C)C)CC3)cc2)c1-c1cccc2c(CCCOc3cccc4ccccc34)c(C(=O)O)n(CCN3CCOCC3)c12`: the GI50 in the assay with HOP-92 NSCLC is 2.01 µM; with SNB-19 CNS it was 3.63 µM; in the assay on COLO 205 colon, 2.1 µM; with ACHN renal, 4.03 µM; in the assay on A549 NSCLC it was 4.49 µM; with SK-MEL-5 melanoma, 2.44 µM. Further, the GI50 in the assay on OVCAR-5 ovarian was 3.96 µM; with HS 578T breast, 2.95 µM. Moreover, the TGI in the assay on HOP-92 NSCLC came to 6.56 µM; in the assay on SNB-19 CNS, 23.4 µM; in the assay on COLO 205 colon, 4.81 µM; with ACHN renal, 15.7 µM; with A549 NSCLC, 16.9 µM; in the assay on SK-MEL-5 melanoma, 5.96 µM. Further, the TGI worked out at 23.5 µM in the assay with OVCAR-5 ovarian and 14.7 µM in the assay with HS 578T breast.

On to `CC(=O)[O][Sn]([CH2]c1ccccc1)([CH2]c1ccccc1)[CH2]c1ccccc1`, for which the GI50 was > 10 µM in the assay with BT-549 breast; > 10 µM in the assay on SNB-19 CNS; > 5.6 µM in the assay on COLO 205 colon; > 10 µM in the assay with ACHN renal; > 8.99 µM in the assay on A549 NSCLC; 4.15 µM in the assay with SK-MEL-5 melanoma. The figures for the GI50 in the assay on OVCAR-5 ovarian, with UACC-62 melanoma and with HS 578T breast were > 10 µM, > 10 µM and > 6.39 µM, respectively. In addition, the TGI in the assay with BT-549 breast was > 10 µM; in the assay on SNB-19 CNS it was > 10 µM; with COLO 205 colon, > 6.79 µM; in the assay with ACHN renal, > 10 µM; in the assay on A549 NSCLC, > 10 µM; in the assay on SK-MEL-5 melanoma, > 6.51 µM. The values for the TGI in the assay with OVCAR-5 ovarian, with UACC-62 melanoma and in the assay with HS 578T breast were > 10 µM, > 10 µM and > 9.44 µM, respectively.

As for `COc1ccc(COC2CC(OC)OC(C)C2OC(=O)c2ccccc2)cc1` (stereo not given), the TGI in the assay on HOP-92 NSCLC was > 100 µM; in the assay with SNB-19 CNS, > 100 µM; with COLO 205 colon, > 95 µM; with ACHN renal, > 88.4 µM; in the assay with A549 NSCLC, > 100 µM; in the assay on SK-MEL-5 melanoma, 31.9 µM. Also, the TGI in the assay with OVCAR-5 ovarian is > 94.7 µM; in the assay on UACC-62 melanoma, > 100 µM.

Consider `CCOC(=O)c1cc2c(n1Cc1cc(OC)c(OC)c(OC)c1)-c1oncc1CCC2`, for which the GI50 with BT-549 breast was 0.647 µM; in the assay with SNB-19 CNS it was 0.604 µM; in the assay with COLO 205 colon, 0.109 µM; in the assay with ACHN renal it was 0.296 µM; in the assay on A549 NSCLC, 0.234 µM; in the assay on SK-MEL-5 melanoma, 0.207 µM. For the same compound, the GI50 was 0.481 µM in the assay on OVCAR-5 ovarian, 0.0666 µM with UACC-62 melanoma and 0.343 µM in the assay on HS 578T breast. The TGI with BT-549 breast is 22 µM; with SNB-19 CNS, > 100 µM; in the assay on COLO 205 colon, 0.495 µM; in the assay with ACHN renal, > 59.9 µM; in the assay on A549 NSCLC, 65.4 µM; with SK-MEL-5 melanoma, 7.01 µM. Further, the TGI in the assay on OVCAR-5 ovarian is > 100 µM; with UACC-62 melanoma, > 40.3 µM; with HS 578T breast, > 100 µM.

Take `O=C1/C(=N\O)S(=O)(=O)c2ccccc21`: the TGI with HOP-92 NSCLC, with SNB-19 CNS, in the assay on COLO 205 colon, with ACHN renal, in the assay with A549 NSCLC and with SK-MEL-5 melanoma was > 100 µM each time. The TGI in the assay on OVCAR-5 ovarian and with UACC-62 melanoma was > 100 µM in each case.

For `CC(=O)[CH-]C(=O)c1ccccc1.CC(=O)[CH-]C(=O)c1ccccc1.CC(=O)[CH-]C(=O)c1ccccc1.[In+3]`, the GI50 in the assay with HOP-92 NSCLC was 17.8 µM; in the assay on SNB-19 CNS, > 100 µM; in the assay on COLO 205 colon, 31.9 µM; in the assay on ACHN renal, 35 µM; in the assay with A549 NSCLC it was 48.8 µM; in the assay on OVCAR-5 ovarian, 42.7 µM. For the same compound, the GI50 in the assay on UACC-62 melanoma was 32.9 µM. The TGI with HOP-92 NSCLC is 49.8 µM; with SNB-19 CNS, > 100 µM; in the assay on COLO 205 colon, 85.4 µM; with ACHN renal, > 100 µM; in the assay on A549 NSCLC, > 100 µM; in the assay with OVCAR-5 ovarian, > 100 µM. The TGI with UACC-62 melanoma was > 100 µM.

As for `C[C@]12CCC(=O)CC1CCCC2=O` (stereo not given in full), the TGI with HOP-92 NSCLC, in the assay with SNB-19 CNS, with COLO 205 colon, in the assay with A549 NSCLC, with SK-MEL-5 melanoma and with UACC-62 melanoma was > 100 µM in each case.

Consider `COc1ccc(C(=O)/C=C/c2cccc(Nc3ccnc4cc(Cl)ccc34)c2)cc1`, for which the GI50 with HOP-92 NSCLC is 1.09 µM; with SNB-19 CNS, 2.26 µM; in the assay with COLO 205 colon, 3.85 µM; in the assay on A549 NSCLC, 2.78 µM; with OVCAR-5 ovarian, 2.6 µM; in the assay with HS 578T breast, 3.18 µM. In addition, the TGI is 7.08 µM in the assay on HOP-92 NSCLC; > 100 µM with SNB-19 CNS; > 100 µM in the assay with COLO 205 colon; > 100 µM in the assay with A549 NSCLC; > 100 µM in the assay with OVCAR-5 ovarian; > 100 µM in the assay with HS 578T breast.

For the compound `O=C(NC(=Nc1ccccc1)SCCSC(=Nc1ccccc1)NC(=O)c1cccs1)c1cccs1`, the TGI was 46.1 µM in the assay on HOP-92 NSCLC; > 100 µM in the assay with SNB-19 CNS; > 100 µM with COLO 205 colon; > 100 µM in the assay with ACHN renal; > 100 µM in the assay on A549 NSCLC; 74 µM in the assay with SK-MEL-5 melanoma. Moreover, the TGI in the assay with OVCAR-5 ovarian and in the assay with UACC-62 melanoma was > 100 µM each time.

Consider `CC1(C)CC2CC(CC(C)(C)C2=O)C1=O`, for which the TGI in the assay on HOP-92 NSCLC, with SNB-19 CNS, in the assay on COLO 205 colon, with ACHN renal, with A549 NSCLC and in the assay on SK-MEL-5 melanoma was > 100 µM throughout. Also, the TGI in the assay on OVCAR-5 ovarian and in the assay with UACC-62 melanoma was > 100 µM throughout.

Regarding `COc1cccc(NC(=O)CC(=O)N2N=C(N3c4ccccc4Sc4ccccc43)CC2c2ccccc2)c1` (stereo not given), the TGI with HOP-92 NSCLC, in the assay on SNB-19 CNS, in the assay on COLO 205 colon, in the assay with ACHN renal, with A549 NSCLC and in the assay with SK-MEL-5 melanoma was > 100 µM in each case. Also, the TGI in the assay with OVCAR-5 ovarian and in the assay with UACC-62 melanoma was > 100 µM each time.
